For the experiment, the target named is T1, NAMPT (Homo sapiens, UniProt P43490).
T1 construct: purchased Abcam ab221819
T1 sequence (P43490 whole entry): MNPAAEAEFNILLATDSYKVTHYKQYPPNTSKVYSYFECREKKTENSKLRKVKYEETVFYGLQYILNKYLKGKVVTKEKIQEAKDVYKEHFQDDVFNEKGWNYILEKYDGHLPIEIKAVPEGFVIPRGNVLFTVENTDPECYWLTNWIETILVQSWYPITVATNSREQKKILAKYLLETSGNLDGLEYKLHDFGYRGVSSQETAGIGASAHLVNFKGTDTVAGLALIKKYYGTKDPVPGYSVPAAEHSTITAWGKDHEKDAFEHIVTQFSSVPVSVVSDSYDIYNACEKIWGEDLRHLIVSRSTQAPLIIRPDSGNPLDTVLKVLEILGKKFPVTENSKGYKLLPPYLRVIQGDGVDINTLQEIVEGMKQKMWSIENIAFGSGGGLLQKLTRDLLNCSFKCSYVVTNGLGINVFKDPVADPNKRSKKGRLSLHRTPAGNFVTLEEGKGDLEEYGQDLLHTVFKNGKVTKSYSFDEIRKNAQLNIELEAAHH
In words: NAMPT Activity Assay (Abcam #ab221819). It counts as biochemical. Conditions: purified NAMPT, percent inhibition from OD450 nm; compound concentration not given. Here is the method: The NAMPT Activity Assay (Abcam #ab221819) was performed following manufacturers two-step reaction protocol. Briefly, compounds were added to a clear 96-well plate using the HP D300e Digital Dispenser. Purified NAMPT was added to all wells except the No NAMPT controls. Reaction Mix #1 was added to each well and the plate was incubated at 30*C for 1 hr followed by the addition of Reaction Mix #2. Absorbance was measured at OD450 nm using a multimode plate reader. Readings were recorded for 5 minutes and percent inhibition was calculated using: (1-(OD450 nm compound/OD450nm no drug))*100.
Consider `CC(=O)N(CC(F)F)c1ccc(-c2ccc(C(=O)NCCc3cn[nH]c3)cn2)cc1Cl` [I-T2114, 6-[4-[Acetyl(2,2-difluoroethyl)amino]-3-chloro-phenyl]-N-[2-(1H-pyrazol-4-yl)ethyl]pyridine-3-carboxamide], for which the “NAMPT Inhibition Code*” value is listed as “A (*A = <33% inhibition)”.
For `CC(=O)N(CC1CC1)c1ccc(-c2ccc(C(=O)NCc3ncco3)cn2)cc1Cl` [I-T2364, 6-[4-[acetyl(cyclopropylmethyl)amino]-3-chloro-phenyl]-N-(oxazol-2-ylmethyl)pyridine-3-carboxamide], the “NAMPT Inhibition Code*” value is “A (*A = <33% inhibition)”.
`CC(=O)N(CC1COC1)c1ccc(-c2ccc(C(=O)NCc3ccccc3)cn2)cc1Cl` [I-T2327, 6-[4-[acetyl(oxetan-3-ylmethyl)amino]-3-chloro-phenyl]-N-benzyl-pyridine-3-carboxamide]: the “NAMPT Inhibition Code*” value is recorded as “A (*A = <33% inhibition)”.
As to `CC(=O)N(CC1CC1)c1ccc(-c2ccc(NC(=O)C3CC3c3cccnc3)cn2)cc1Cl` (stereo not shown) [I-T2289, N-[6-[4-[acetyl(cyclopropylmethyl)amino]-3-chloro-phenyl]-3-pyridyl]-2-(3-pyridyl)cyclo propanecarboxamide], the “NAMPT Inhibition Code*” value is reported as “C (C = ≥66% inhibition)”.
`CC(=O)N(CC1CC1)c1ccc(-c2ccc(NC(=O)CC3CCCCC3)cn2)cc1Cl` [I-T2394, N-[6-[4-[acetyl(cyclopropylmethyl)amino]-3-chloro-phenyl]-3-pyridyl]-2-cyclohexyl-acetamide]: the “NAMPT Inhibition Code*” value is “A (*A = <33% inhibition)”.
For `CC(=O)N(CC1CC1)c1ccc(-c2ccc(C(=O)NCc3cncnc3)cn2)cc1Cl` [I-T2147, 6-[4-[Acetyl(cyclopropylmethyl)amino]-3-chloro-phenyl]-N-(pyrimidin-5-ylmethyl)pyridine-3-carboxamide] the value was “A (*A = <33% inhibition)”; for `CC(=O)N(CC1CC1)c1ccc(-c2ccc(C(=O)NCc3c[nH]cn3)cn2)cc1Cl` [I-T2151, 6-[4-[Acetyl(cyclopropylmethyl)amino]-3-chloro-phenyl]-N-(1H-imidazol-4-ylmethyl)pyridine-3-carboxamide], “A (*A = <33% inhibition)”; for `CC(=O)N(CC1CC1)c1ccc(-c2ccc(C(=O)NCCc3cncs3)cn2)cc1Cl` [I-T2360, 6-[4-[acetyl(cyclopropylmethyl)amino]-3-chloro-phenyl]-N-(2-thiazol-5-ylethyl)pyridine-3-carboxamide], “C (C = ≥66% inhibition)”.
As to `CC(=O)N(CC1CC1)c1ccc(-c2ccc(C(=O)NCCc3ccc(C)nc3)cn2)cc1Cl` [I-T2309, 6-[4-[Acetyl(cyclopropylmethyl)amino]-3-chloro-phenyl]-N-[2-(6-methyl-3-pyridyl)ethyl]pyridine-3-carboxamide], the “NAMPT Inhibition Code*” value is on record as “B (B = >33 to <66% inhibition)”.
Turning to `CC(=O)N(CC1CC1)c1ccc(-c2ccc(NC(=O)Cc3ccc(Cl)cc3)cn2)cc1Cl` [I-T2393, N-[6-[4-[acetyl(cyclopropylmethyl)amino]-3-chloro-phenyl]-3-pyridyl]-2-(4-chlorophenyl)acetamide], the “NAMPT Inhibition Code*” value is given as “C (C = ≥66% inhibition)”.
The same measure for `CC(=O)N(CC1CC1)c1ccc(-c2ccc(NC(=O)CCc3cccnc3F)cn2)cc1Cl` [I-T2369]: “C (C = ≥66% inhibition)”.
`CC(=O)N(CC1CC1)c1ccc(-c2ccc(C(=O)NCCc3cccnc3)cn2)cc1Cl` [I-T2130, 6-[4-[Acetyl(cyclopropylmethyl)amino]-3-chloro-phenyl]-N-[2-(3-pyridyl)ethyl]pyridine-3-carboxamide]: the “NAMPT Inhibition Code*” value is listed as “C (C = ≥66% inhibition)”.
For `CC(=O)N(CC1CC1)c1ccc(-c2ccc(C(=O)NCCCc3cc[nH]n3)cn2)cc1Cl` [I-T2127, 6-[4-[Acetyl(cyclopropylmethyl)amino]-3-chloro-phenyl]-N-[3-(1H-pyrazol-3-yl)propyl]pyridine-3-carboxamide] the value was “C (C = ≥66% inhibition)”; for `CC(=O)N(CC1CC1)c1ccc(-c2ccc(NC(=O)CCc3ccc(F)nc3)cn2)cc1Cl` [I-T2384, N-[6-[4-[acetyl(cyclopropylmethyl)amino]-3-chloro-phenyl]-3-pyridyl]-3-(6-fluoro-3-pyridyl)propanamide], “B (B = >33 to <66% inhibition)”.
In the case of `CC(=O)N(CC1CC1)c1ccc(-c2ccc(C(=O)NCCCc3cnn(C)c3)cn2)cc1Cl` [I-T2366, 6-[4-[acetyl(cyclopropylmethyl)amino]-3-chloro-phenyl]-N-[3-(1-methylpyrazol-4-yl)propyl]pyridine-3-carboxamide], the “NAMPT Inhibition Code*” value was “A (*A = <33% inhibition)”.
Turning to `COC(=O)c1cc(-c2ccc(C(=O)Nc3cnc4nccn4c3)cn2)ccc1N(CC1CC1)C(C)=O` [I-T2295, Methyl 2-[acetyl(cyclopropylmethyl)amino]-5-[5-(imidazo[1,2-a]pyrimidin-6-ylcarbamoyl)-2-pyridyl]benzoate], the “NAMPT Inhibition Code*” value was “C (C = ≥66% inhibition)”.
Take `CC(=O)N(CC1CC1)c1ccc(-c2ccc(NC(=O)COc3cccnc3)cn2)cc1Cl` [I-T2119, N-[6-[4-[acetyl(cyclopropylmethyl)amino]-3-chloro-phenyl]-3-pyridyl]-2-(3-pyridyloxy)-acetamide]: the “NAMPT Inhibition Code*” value is on record as “C (C = ≥66% inhibition)”.
Turning to `CC(=O)N(CC1CC1)c1ccc(-c2ccc(C(=O)NCCc3cn[nH]c3)cn2)cc1Cl` [I-T2111, 6-[4-[Acetyl(cyclopropylmethyl)amino]-3-chloro-phenyl]-N-[2-(1H-pyrazol-4-yl)ethyl]pyridine-3-carboxamide], the “NAMPT Inhibition Code*” value was “C (C = ≥66% inhibition)”.
Regarding `CC(=O)N(CC1CC1)c1ccc(-c2ccc(C(=O)NCc3cc[nH]n3)cn2)cc1Cl` [I-T2132, 6-[4-[Acetyl(cyclopropylmethyl)amino]-3-chloro-phenyl]-N-(1H-pyrazol-3-ylmethyl)pyridine-3-carboxamide], the “NAMPT Inhibition Code*” value is on record as “A (*A = <33% inhibition)”.
The same measure for `CC(=O)N(CC1CC1)c1ccc(-c2ccc(NC(=O)Cc3cccnc3Cl)cn2)cc1Cl` [I-T2392, N-[6-[4-[acetyl(cyclopropylmethyl)amino]-3-chloro-phenyl]-3-pyridyl]-2-(2-chloro-3-pyridyl)acetamide]: “A (*A = <33% inhibition)”.
For `CC(=O)N(CC(F)F)c1ccc(-c2ccc(NC(=O)COc3cccnc3)cn2)cc1Cl` [I-T2291, N-[6-[4-[acetyl(2,2-difluoroethyl)amino]-3-chloro-phenyl]-3-pyridyl]-2-(3-pyridyloxy)acetamide] the value was “C (C = ≥66% inhibition)”; for `CC(=O)N(CC1CC1)c1ccc(-c2ccc(C(=O)NCc3cscn3)cn2)cc1Cl` [I-T2354, 6-[4-[acetyl(cyclopropylmethyl)amino]-3-chloro-phenyl]-N-(thiazol-4-ylmethyl)pyridine-3-carboxamide], “A (*A = <33% inhibition)”; for `CC(=O)N(CC1CC1)c1ccc(-c2ccc(C(=O)NCc3ccccc3)cn2)cc1Cl` [I-T2113, 6-[4-[Acetyl(cyclopropylmethyl)amino]-3-chloro-phenyl]-N-benzyl-pyridine-3-carboxamide], “C (C = ≥66% inhibition)”.
For `CC(=O)N(CC1CC1)c1ccc(-c2ccc(C(=O)NCC3CCOC3)cn2)cc1Cl` (stereo not shown) [I-T2115, 6-[4-[Acetyl(cyclopropylmethyl)amino]-3-chloro-phenyl]-N-(tetrahydrofuran-3-ylmethyl) pyridine-3-carboxamide] the value was “A (*A = <33% inhibition)”.
For the molecule `CC(=O)N(CC1CC1)c1ccc(-c2ccc(C(=O)NCCCc3cn[nH]c3)cn2)cc1C(F)(F)F` [I-T2304, 6-[4-[Acetyl(cyclopropylmethyl)amino]-3-(trifluoromethyl)phenyl]-N-[3-(1H-pyrazol-4-yl)propyl]pyridine-3-carboxamide], the “NAMPT Inhibition Code*” value was “C (C = ≥66% inhibition)”.
The same measure for `CC(=O)N(CC(F)F)c1ccc(-c2ccc(C(=O)Nc3cnc4nccn4c3)cn2)cc1Cl` [I-T2201, 6-[4-[Acetyl(2,2-difluoroethyl)amino]-3-chloro-phenyl]-N-imidazo[1,2-a]pyrimidin-6yl-pyridine-3-carboxamide]: “C (C = ≥66% inhibition)”; for `CC(=O)N(CC1CC1)c1ccc(-c2ccc(C(=O)NCc3ccc(Br)nc3)cn2)cc1Cl` [I-T2370, 6-[4-[acetyl(cyclopropylmethyl)amino]-3-chloro-phenyl]-N-[(6-bromo-3-pyridyl)methyl]pyridine-3-carboxamide]: “C (C = ≥66% inhibition)”.
The same measure for `COC(=O)c1cc(-c2ccc(C(=O)NCCc3cccnc3)cn2)ccc1N(CC1CC1)C(C)=O` [I-T2296, Methyl 2-[acetyl(cyclopropylmethyl)amino]-5-[5-[2-(3-pyridyl)ethylcarbamoyl]-2-pyridyl]benzoate]: “C (C = ≥66% inhibition)”; for `CC(=O)N(CC1CC1)c1ccc(-c2ccc(C(=O)NCCc3ccsc3)cn2)cc1Cl` [I-T2353, 6-[4-[acetyl(cyclopropylmethyl)amino]-3-chloro-phenyl]-N-[2-(3-thienyl)ethyl]pyridine-3-carboxamide]: “C (C = ≥66% inhibition)”; for `CC(=O)N(CC(F)F)c1ccc(-c2ccc(C(=O)NCCCc3cn[nH]c3)cn2)cc1Cl` [I-T2108, 6-[4-[Acetyl(2,2-difluoroethyl)amino]-3-chloro-phenyl]-N-[3-(1H-pyrazol-4-yl)propyl]pyridine-3-carboxamide]: “C (C = ≥66% inhibition)”.
`CC(=O)N(CC1CC1)c1ccc(-c2ccc(C(=O)NCC3CC(F)(F)C3)cn2)cc1Cl` [I-T2345, 6-[4-[acetyl(cyclopropylmethyl)amino]-3-chloro-phenyl]-N-[(3,3-difluorocyclobutyl)methyl]pyridine-3-carboxamide]: the “NAMPT Inhibition Code*” value is “A (*A = <33% inhibition)”.
